Results on four compounds are retold here after patent US20020040203A1, “Method for transdermal or intradermal delivery of molecules” (priority 2000, published 2002).

For series [1] the following is noted: cited from earlier work; for charge: pH 8 stated for PP-IX.
The nature of series [2]: Transport of model molecules through heat-stripped porcine stratum corneum by electroporation, Hanson Vertical Diffusion chamber. The class given is in vitro ADME. Particulars: for transport across the SC to the acceptor chamber: negative pulses 375V, 1 msec, 1 Hz, up to 30 min. The method, then:
Stratum corneum layer was obtained from porcine skin by heat treatment as follows. Fresh pieces of porcine skin were wrapped in aluminum foil and placed in a 60° C. water bath for 5 minutes. The SC was gently pulled away from the remaining tissue. The SC can be used directly or stored on glass microscope slides at 4° C. The SC was then used in a Hanson Vertical Diffusion chamber. This simple device is an accepted model system for studying transport through skin by those skilled in the art. This device contains two compartments which are filled with a suitable buffer (10 mM Tris, 100 mM NaCl, 1 mM EDTA at pH 8.0). One of the compartments acts as the donor and the other as the acceptor. The liposomes and the test molecule are added to the donor chamber. The outermost layer of the skin, the SC forms an effective barrier to the transport of biomolecules. The upper chamber was considered as the outer surface of the skin and the lower chamber as the skin directly below the SC. Platinum wires served as electrodes, one was placed in the upper chamber and the other in the lower chamber. Electric pulses were applied across the SC using a pulse generator.
Lipid formulations were prepared as follows. Dioleylphosphatidylglycerol and dioleylphosphatidyl choline was mixed at an approximate 1:1 molar ratio and dispersed in buffer by vigorous vortexing resulting in the formation of multilamellar lipid vesicles (MLV). The molecular weights of the molecules tested range from 200 to 600. The model molecules were chosen for their charge and their respective solubility.
[…] The model molecule as a solution in buffer was then added to the upper chamber. During the next 10 min no pulses were applied. An aliquot of the buffer was removed from the lower (acceptor) chamber. Pulses were next applied for 10, 20 and 30 min and aliquots removed from the lower chamber for analysis at 10, 20 and 30 min to determine delivery of the model molecule. Another aliquot was removed from the lower chamber 10 min after cessation of pulse application. In control studies, the SC was pre-pulsed for 10 min with buffer only (no lipid) and then the model molecule added in the upper chamber and pulsed for three further periods of 10 min each.
The amount of the model molecule transported to the acceptor chamber was measured in the aliquots removed at different times by using fluorescence spectroscopy.

The conditions of series [3]: cited from earlier work.
The mark [4] stands for this setting: SC pre-treated with DOPG:DOPC lipid formulation.
Setting [5] is: absence of lipid formulation (pre-pulsed with buffer only).

For `CN(C)c1ccc2nc3ccc(=[N+](C)C)cc-3sc2c1` [MB, Methylene Blue], the charge result in series [1] was “positively charged”. The entries for the “transport across the SC to the acceptor chamber” value (from here on “transport across the SC”) in series [2] (setting [4]) and in series [2] (setting [5]) were “large amount of MB transported across the SC” and “very little MB present in the acceptor chamber”, respectively. Also, the “concentration in the lower chamber after cessation of pulse application” value in series [2] (negative pulses, SC pre-treated with lipid formulation, 10 min without pulse) is given as “continued increase in MB concentration in the lower chamber”. Further, the “effect of lipid formulation on transport” value in series [2] (pulses of positive polarity, DOPG:DOPC MLV present) is “inhibited the transport of MB”.
As for `C=CC1=C(C)c2cc3[nH]c(cc4nc(cc5[nH]c(cc1n2)c(C)c5CCC(=O)O)C(CCC(=O)O)=C4C)c(C)c3C=C` [PP-IX, protoporphyrin IX], in series [1], the solubility entry is reported as “low solubility”. In addition, the figures for the “transport across the SC” value in series [2] (setting [4]) and in series [2] (setting [5]) were “an increase in the transport in the presence of the added lipid” and “significant transport of PP-IX across the SC”, respectively.
Turning to bleomycin, in series [3], the “log P (partition coefficient between octanol and water)” value is “very negative”.
With methylated protoprophyrin IX [MPP-IX], in series [1], the solubility entry was “soluble only in the presence of detergents” and the charge entry was “no charge”. Further, in series [2] (setting [4]), the “transport across the SC” value is “enhanced transport”. Besides, the “transport across the SC” value in series [2] (setting [5]) is listed as “very low transport”.
